From ChEMBL document CHEMBL4431357, “Discovery of a novel class of highly potent inhibitors of the p53-MDM2 interaction by structure-based design starting from a conformational argument” (Bioorg Med Chem Lett, 2016) come the findings set out here.

One may read the IC50 as the concentration needed to halve the response being measured. The low end stands for greater potency, the high end for weaker potency.

Sequence of Tumour suppressor p53/oncoprotein Mdm2 (P04637 whole entry, the tested form may be a part): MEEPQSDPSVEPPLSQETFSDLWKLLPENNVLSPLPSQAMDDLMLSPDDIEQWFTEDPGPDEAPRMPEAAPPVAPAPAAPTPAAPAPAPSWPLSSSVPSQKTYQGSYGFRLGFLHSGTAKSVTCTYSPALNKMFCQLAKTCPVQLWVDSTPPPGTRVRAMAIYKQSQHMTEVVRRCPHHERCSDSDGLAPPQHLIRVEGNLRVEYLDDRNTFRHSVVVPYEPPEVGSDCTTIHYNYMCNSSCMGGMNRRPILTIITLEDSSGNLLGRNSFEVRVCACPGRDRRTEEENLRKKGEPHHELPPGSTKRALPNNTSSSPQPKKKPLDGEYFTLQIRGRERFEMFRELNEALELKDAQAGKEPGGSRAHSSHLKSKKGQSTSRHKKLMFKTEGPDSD
Sequence of Tumour suppressor p53/oncoprotein Mdm2 (Q00987 whole entry, the tested form may be a part): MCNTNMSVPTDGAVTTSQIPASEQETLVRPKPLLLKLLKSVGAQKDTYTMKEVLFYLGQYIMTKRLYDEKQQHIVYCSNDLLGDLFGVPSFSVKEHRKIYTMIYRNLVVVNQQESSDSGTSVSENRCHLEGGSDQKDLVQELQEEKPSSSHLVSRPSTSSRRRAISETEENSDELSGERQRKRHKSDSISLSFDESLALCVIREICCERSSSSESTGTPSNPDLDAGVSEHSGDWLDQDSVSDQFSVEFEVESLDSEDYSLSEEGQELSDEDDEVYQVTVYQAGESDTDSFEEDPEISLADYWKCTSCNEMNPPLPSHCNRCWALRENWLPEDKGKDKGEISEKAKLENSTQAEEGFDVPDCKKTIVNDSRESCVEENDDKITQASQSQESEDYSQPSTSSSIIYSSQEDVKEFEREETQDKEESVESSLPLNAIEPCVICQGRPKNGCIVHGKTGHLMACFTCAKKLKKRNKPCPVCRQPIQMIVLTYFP

This experiment concerns the target Tumour suppressor p53/oncoprotein Mdm2 (Homo sapiens, UniProt Q00987). As to the kind of experiment: Inhibition of C-terminal biotin-tagged streptavidin labelled human MDM2 ( 2 to 188 residues)/Cy5-labelled p53 (18 to 26 residues)(unknown origin) interaction after 15 mins by TR-FRET assay. In kind it is protein assay. Background: TR-FRET usually uses a lanthanide donor and a delayed reading to cut background.
In turn, `Cc1n[nH]c2c1C(c1ccc(Cl)cc1)N(c1cccc(Cl)c1)C2=O` (racemic) showed an IC50 of 350 nM. In other words, the sub-micromolar range.
For `CC(C)(C)c1n[nH]c2c1C(c1ccc(Cl)cc1)N(c1cccc(Cl)c1)C2=O` (racemic) the value was 18 nM; for `Cc1cc(Cl)ccc1C1c2c(C(C)C)n[nH]c2C(=O)N1c1cc(Cl)ccc1C` (racemic), 4.2 nM.
Consider `CC(C)c1n[nH]c2c1C(c1ccc(Cl)cc1)N(c1cccc(Cl)c1)C2=O` (racemic), for which the IC50 is 32 nM.
For `Cc1ccc(N2C(=O)c3[nH]nc(C)c3C2c2ccc(Cl)cc2)cc1` (stereo not given) the value was 1500 nM.
